# Assays:
# Assay type in all cases: cell-based, human
# adult NHDFs [1] = test: Collagen-boosting assay, Example 4 (PIP ELISA; Mitostime); details: 10 ng/ml; 3 days
# Experimental: Mitostime was tested for its collagen-boosting efficacy in NHDFs. TGFβ, at 10 ng/ml, was run as a positive control. Adult NHDFs were seeded and grown to confluence in a 96 well plate prior to treatment with mitostime 0.075%, 0.15% and 0.3% (w/v). The plate was incubated for 3 days at 37° C./5% CO2. Supernatants were harvested and stored at −80° C. in siliconized tubes until the PIP ELISA was performed as outlined in Example 1. For this assay, supernatants were diluted 1:200. […] TGFβ increased collagen synthesis by 27% (p=0.0001).
# adult NHDFs [2] = test: Collagen-boosting assay, Example 3 (PIP ELISA; Argireline); details: 3 days
# Experimental: In this assay, Argireline was tested for its efficacy in boosting collagen synthesis in NHDFs. TGFβ was run as a positive control.
# Adult NHDFs were seeded and grown to confluence in a 96 well plate prior to treatment with Argireline at concentrations of 0.001, 0.01, 0.1 and 1% (v/v) in media (negative control) or with 10 ng/ml TGFβ (positive control) in media.
# The plate was incubated for 3 days at 37° C./5% CO2. Supernatants were harvested and stored at −80° C. in siliconized tubes until the PIP ELISA was performed, as described in Example 1. For this assay, supernatants were diluted 1:40.
# adult NHDF cells = test: Collagen-boosting assay, Example 5 (PIP ELISA; NXP-75); details: 10 ng/ml; 3 days
# Experimental: In this assay, NXP-75 was tested for its efficacy in boosting collagen synthesis in NHDFs. TGFβ (10 ng/ml) was run as a positive control. Adult NHDF cells were seeded and grown to confluence in a 96 well flat bottom plate prior to treatment. NXP-75 powder was prepared at the following dilutions: 0.0001, 0.001, 0.01 and 0.1% (w/v) in media (negative control). The plate was incubated for 3 days at 37° C./5% CO2. Supernatants were harvested and stored at −80° C. in siliconized tubes until the PIP ELISA was performed. For this assay, supernatants were diluted 1:200. […] TGFβ enhanced collagen synthesis by 20% compared with media.
# adult NHDFs [3] = test: Collagen-boosting assay, Example 4 (PIP ELISA; Mitostime in combination with Argireline); details: 10 ng/ml; 3 days
# Experimental: Mitostime also was tested in combination with Argireline for efficacy in boosting collagen synthesis in NHDFs. TGFβ, at 10 ng/ml, was run as a positive control. Adult NHDFs were seeded and grown to confluence in a 96 well plate prior to treatment with Mitostime at 0.3%/Argireline peptide at 0.00005%; Mitostime at 0.15%/Argireline peptide at 0.000025%; and Mitostime at 0.075%/Argireline peptide at 0.0000125%. The plate was incubated for 3 days at 37° C./5% CO2. Supernatants were harvested and stored at −80° C. in siliconized tubes until the PIP ELISA was performed as outlined in Example 1. For this assay, supernatants were diluted 1:200. […] TGFβ increased collagen synthesis by 23%.
Substance,increase in collagen synthesis compared with media (adult NHDFs [1]),increase in collagen levels (adult NHDFs [2]; 10 ng/ml),boost of collagen synthesis compared with media (adult NHDF cells),increase in collagen synthesis (adult NHDFs [3]),increase in collagen synthesis compared with media (adult NHDFs [2]; 0.01%),increase in collagen synthesis compared with media (adult NHDFs [2]; 0.1% (v/v))
TGFβ,27%,147%,20%,23%,,
acetyl hexapeptide-3 [Argireline],,,,,29%,76%
